Converted amounts (≈) assume the structure as drawn.
Key:
[1] = Aqueous solubility of compound in pH 7.4; format: physicochemical
[2] = Octanol/water partition co-efficient, log P of compound at pH 7.4; format: physicochemical
[3] = Half life in human; format: ADME
[4] = Protein binding in human plasma; format: ADME, cell-free; settings: read-out: PPB (converted)

Compound `COCCCOc1cc(C[C@@H](C[C@H](N)[C@@H](O)C[C@H](C(=O)NCC(C)(C)C(N)=O)C(C)C)C(C)C)ccc1OC` has a solubility [1] of 350 mg/mL (≈ 634 mM), a logD [2] of 2.45 and a half-life [3] of 24 h. For the same compound, the fraction unbound [4] was 0.505.

From ChEMBL document CHEMBL4627361, “Decades-old renin inhibitors are still struggling to find a niche in antihypertensive therapy. A fleeting look at the old and the promising new molecules” (Bioorg Med Chem, 2020)
